Test results reported in patent US8388936B2, “In vivo mitochondrial labeling using positively-charged nitroxide enhanced and gadolinium chelate enhanced magnetic resonance imaging” (MCW Research Foundation, Inc., priority 2008, dated 2013).

Tests used:
MCF7 cells = experiment: MTT cell viability assay; type: cell-based; settings: MCF7, 1-30 uM, 48 h
Method: (§1) Cell Culture. MCF7, MDA-MB-231 and MCF10-A cells were obtained from the American Type Culture Collection (ATCC) and cultured at 37° C. in humidified 95% air/5% CO2. MCF7 cells were maintained in MEM-alpha medium containing 10% FBS, L-glutamine (4 mM), penicillin (100 μg/ml), streptomycin (100 μg/ml), non-essential amino acids and sodium pyruvate. MDA-MB-23 were grown in Dulbecco's Modified Eagle's medium (DMEM) containing 10% FBS, L-glutamine (4 mM), penicillin (100 μg/ml), and streptomycin (100 μg/ml). MCF10-A cells were maintained in F-12 media supplemented with 20% FHS, hydrocortisone, cholera toxin, penicillin, streptomycin, and endothelial cell growth factor (ECGF). Typically, the day of the treatment, various concentrations of the nitroxides were added to the cells directly in the media.
(§2) The MTT assay (Sigma-Aldrich, Milwaukee, Wis.) was used to measure cell survival using quantitative colorimetry (λ=570 nm). This assay is based on the capacity of mitochondrial dehydrogenases to reduce MTT to form the insoluble formazan product. Cells were plated in 12-well plates and treated at pre-confluency with Mito-CP and CP (0-30 μM) in their respective media for 48 h. The culture media was removed after treatment, washed gently with DPBS and MTT (5 mg/ml in media) was added to each well, following incubation of the plates for 1 h at 37° C. The MTT solution was removed and the formazan product in each well was dissolved with dimethyl sulfoxide (DMSO). The optical density of each well was measured using an Agilent 8453 UV-Vis spectrometer at 570 nm.
(§3) MCF7, MDA-MB-231 and non-tumorigenic MCF10-A were grown to pre-confluency and treated with either Mito-CP or parent compound CP (1-30 uM) for 48 h and cell viability was measured using the MTT assay.

MDA-MB-231 cells = experiment: MTT cell viability assay; type: cell-based; settings: MDA-MB-231, 1-30 uM, 48 h
Method: as §1, §2, §3

[1] = system: non-tumorigenic MCF10-A breast epithelial cells; experiment: MTT cell viability assay; type: cell-based; settings: normal MCF10-A, 1-30 uM, 48 h
Method: as §1, §2, §3

[2] = T1 (longitudinal) relaxivity in buffered saline by spin echo inversion recovery MRI; type: physicochemical; settings: buffered saline (DPBS)
Method: T1 Relaxivity at 1.5 Tesla. The longitudinal relaxivities of CP and Mito-CP were determined using a LX 1.5 T GE Scanner (GE, Waukesha, Wis.) using an 8-channel head rf coil. Solutions of CP and Mito-CP were diluted with Dulbecco's Phosphate Buffered Saline (DPBS) to the following concentrations: 5.0 μM, 10.0 μM, 20.0 μM, 50.0 μM, 100.0 μM, 200.0 μM, 300.0 μM, 500.0 μM, 700.0 μM, 1.0 mM, 2.0 mM, 5.0 mM, 10.0 mM, and 20.0 mM. Longitudinal relaxation times (T1) for each solution and relaxivities (R1) for CP and Mito-CP were calculated using images from a standard spin echo sequence (TE=14 msec, TR=10 sec) at various inversion times (TI=50, 125 msec incrementing by 125 msec to 3500 msec and 4000 msec).
T1 Relaxivity at 3.0 Tesla. The longitudinal relaxivities of CP and Mito-CP were determined using a Signa 3.0 T GE Scanner (GE, Waukesha, Wis.) using a custom rf quadrature coil. Solutions of CP and Mito-CP were diluted with Dulbecco's Phosphate Buffered Saline (DPBS) to the following concentrations: 1.0 μM, 10.0 μM, 100.0 μM, 1.0 mM, 10.0 mM, and 20.0 mM. Longitudinal relaxation times (T1) for each solution and relaxivities (R1) for CP and Mito-CP were calculated using images from a standard spin echo sequence (TE=9 msec, TR=15 sec) at various inversion times (TI=100 msec incrementing by 100 msec to 4000 msec and 50, 150, 1050, 1150 msec).
T1 Relaxivity at 9.4 Tesla. Both solutions were diluted with Dulbecco's Phosphate Buffered Saline (DPBS) to the following concentrations: […], 1.0 mM, 10.0 mM, and 20.0 mM. Longitudinal relaxation times (T1) for each solution and relaxivities (R1) for CP and Mito-CP were calculated using a standard spin echo sequence (TE=9 msec, TR=15,000 msec) at various inversion times (TI=100 msec incrementing by 100 msec to 4000 msec and 50, 150, 1050, 1150 msec).
The longitudinal relaxivities of other nitroxides have been approximate […]. In order to assess the longitudinal relaxivity of CP and Mito-CP, concentrations were prepared with the expectation of this relaxivity. Two separate initial solutions of CP and Mito-CP were prepared. Longitudinal relaxivities were determined for both CP and Mito-CP at three field strengths. Relaxivities were obtained from non-linear fits of standard spin echo inversion recovery images calculated using Matlab.

[3] = system: isolated rabbit heart mitochondria; experiment: In vitro localization in isolated mitochondria, MRI T1 analysis; settings: for T1 / enhancement of treated mitochondria (uptake): 10 uM, 37° C. 10 minutes, 3.0 T, compared to mitochondria alone
Method: The experiment was carried out on a Signa 3.0 T GE scanner (GE, Waukesha, Wis.) using a custom quadrature rf coil with a G10 fiberglass vial rack. Rabbit heart mitochondria were isolated. For verification of MR detectable mitochondrial accumulation of Mito-CP, isolated rabbit mitochondria were separated into […] eppendorf tubes each containing 40 μL of 15 mg/ml mitochondria. Six eppendorf tubes were prepared as indicated in Table 1 below (1-6), and three additional eppendorf tubes were prepared from the supernatant of tubes 4-6 (4b-6b): Note that succinate is needed to activate the mitochondrial respiratory chain, necessary for normal function. All tubes were incubated at 37° C. for 10 minutes. Immediately following incubation, all tubes were centrifuged at 1,000×g for 4 minutes at 4° C. The supernatant was then transferred into another eppendorf tube. The mitochondria in tubes 4-6 were re-suspended with the addition of […] of DPBS and allowed to settle naturally. […] To determine the specificity that Mito-CP has toward mitochondria, the compound carboxy-proxyl (CP) was used for comparison. CP is a 5-member nitroxide ring, depicted in FIG. 1, without the ten chain linking carbons and the triphenylphosphonium. […] These properties make CP an ideal control for specificity of Mito-CP toward mitochondria.

[4] = for EPR signal of blood following treatment with ferricyanide: rat blood from catheter after dynamic EPR spectra
[5] = cited from earlier work

Question: Which results are given for CC1(C)CC(C(=O)O)C(C)(C)N1[O] (stereo not shown) [CP, carboxy-proxyl, reference compound]?
Answer: induction of cancer cell apoptosis / cell viability (MTT) (MCF7 cells): did not; induction of cancer cell apoptosis / cell viability (MTT) (MDA-MB-231 cells): did not; induction of apoptosis / cell viability (MTT) [1]: no influence inducing apoptosis; longitudinal relaxivity R1 ([2]; 3.0 T): 0.1546 ± 0.00567 mM⁻¹ s⁻¹; T1 / enhancement of treated mitochondria (uptake) [3]: did not enhance considerably; EPR signal of blood following treatment with ferricyanide [4]: not back to its initial level; permeability to lipid membranes [5]: impermeable to lipid membranes

Question: With “(11-(3-carboxy-2,2,5,5-tetramethyl-1-pyrrolidinyloxy)-undecyl)-triphenylphosphonium bromide [Mito-CP]” as the compound, how does the “induction of cancer cell apoptosis / cell viability (MTT)” value (MCF7 cells) read?
Answer: induced cancer cell apoptosis

Question: What about the “induction of cancer cell apoptosis / cell viability (MTT)” value (MDA-MB-231 cells) of the same compound?
Answer: induced cancer cell apoptosis

Question: What about the “induction of apoptosis / cell viability (MTT)” value [1] of the same compound?
Answer: no influence inducing apoptosis

Question: And the “longitudinal relaxivity R1” value ([2]; 1.5 T)?
Answer: 0.1643 ± 0.01314 mM⁻¹ s⁻¹

Question: And the “longitudinal relaxivity R1” value ([2]; 3.0 T)?
Answer: 0.2322 ± 0.0151 mM⁻¹ s⁻¹

Question: What about the “longitudinal relaxivity R1” value ([2]; 9.4 T) of the same compound?
Answer: 0.2083 ± 0.0431 mM⁻¹ s⁻¹

Question: And the “increase in concentration within the mitochondria compared to the incubating solution” value ([3]; 10 uM incubating solution)?
Answer: ≥ 140 fold

Question: And the “estimated mitochondrial associated tissue concentration” value ([3]; 10 uM incubating solution, calculated from relaxivity and T1)?
Answer: 0.143 mM

Question: What about the “T1 / enhancement of treated mitochondria (uptake)” value [3] of the same compound?
Answer: shortened T1, indicating uptake

Question: What about the “EPR signal of blood following treatment with ferricyanide” value [4] of the same compound?
Answer: signal was recovered

Question: And the “time to elimination/reduction from the blood” value ([4]; rat, following bolus injection)?
Answer: ≤ 30 min

Question: And the “in vivo half-life in blood” value ([4]; single rat, tail-vein bolus, monoexponential fit after peak)?
Answer: approximately 2 minutes
